# Where two headings read alike, the source gives them in different places.
# Key:
# [1] = Pharmacokinetic study in ICR mice; conditions: 15 mg/kg i.v.
# [2] = system: three melanoma cell lines and four human prostate cancer cell lines; experiment: SRB cytotoxicity, melanoma and prostate cancer cell lines (ranges and averages over the panel); assay type: cell-based; conditions: Homo sapiens; text on Tables 2, 3, 12, 21; read-out: IC50 (range over cell lines)
# B16-F1 melanoma cells [3] = experiment: B16-F1 melanoma colony formation assay in soft agar; assay type: cell-based, mouse; conditions: 14 days; tested 20, 100, 500 nM
# Description: B16-F1 melanoma cells were plated at a colony-forming density (2000 cells per well on six-well plates) on top of 0.8% base agar. Cells were grown in 0.4% agar together with DMEM medium supplemented with fetal bovine serum and an antibiotic-antimycotic solution at 37° C. in an atmosphere of 95% air and 5% CO2. […] Compounds were added to the media from 1 mM DMSO stock solutions, and a corresponding dilution of DMSO was used as control. Cells were grown for 14 days. Plates were photographed, and the number of colonies was measured by Artek 880 Automated Colony Counter (Artek Systems Corporation, Farmingdale, N.Y.).
# [4] = Metabolic stability in human liver microsomes; conditions: for Half-life in HLM (Phase I) / Half-life in HLM (Phase I + II): Table 16B; for Half life in Human liver microsome: Table 20; for Half-life in HLM (Phase I + II): Phase I + II (UDP-glucuronic acid present)
# NCI/ADR-RES cells = experiment: SRB cytotoxicity assay, NCI/ADR-RES (P-gp over-expressing); assay type: cell-based; conditions: Homo sapiens
# [5] = Metabolic stability in rat liver microsomes; assay type: in vitro ADME; conditions: Table 20
# [6] = Metabolic stability in dog liver microsomes; assay type: in vitro ADME; conditions: Table 20
# [7] = Metabolic stability in mouse liver microsomes; assay type: in vitro ADME; conditions: Table 20
# [8] = Metabolic stability in monkey liver microsomes; assay type: in vitro ADME; conditions: Table 20
# DU 145 cells = experiment: SRB cytotoxicity assay, DU 145; assay type: cell-based, human; conditions: Table 12; 96 h; read-out: IC50 ± SEM Du 145
# From the text: (§1) Cells were stained with SRB solution.
# PPC-1 cells = conditions: read-out: IC50 ± SEM PPC-1; Table 12; 96 h
# From the text: as §1
# A375 melanoma cells = experiment: SRB cytotoxicity assay, A375; assay type: cell-based, human; conditions: read-out: IC50 ± SEM A375
# PC-3 cells [9] = conditions: read-out: IC50 ± SEM PC-3; Table 12; 96 h
# From the text: as §1
# Cells were stained with sulphorhodamine B (SRB) solution.
# LNCaP cells = experiment: SRB cytotoxicity assay, LNCaP; assay type: cell-based, human; conditions: read-out: IC50 ± SEM LNCaP
# From the text: as §1
# WM-164 melanoma cells = experiment: SRB cytotoxicity assay, WM-164; assay type: cell-based, human; conditions: Table 12; 48 h; read-out: IC50 ± SEM WM164
# B16-F1 melanoma cells [10] = experiment: SRB cytotoxicity assay, B16-F1; assay type: cell-based, mouse; conditions: Table 12; 48 h; read-out: IC50 ± SEM B16-F1
# HUVEC monolayers = experiment: Endothelial monolayer permeability assay (FITC-dextran, transwell); conditions: 1, 2, 4 h
# PC-3/TxR xenografts = assay type: in vivo; conditions: for Tumor size Start: PC-3/TxR xenograft, b.i.d × 5/w, end point day 26
# [11] = system: tubulin (colchicine, vinblastine, paclitaxel binding sites); experiment: MS competitive binding assay
# From the text: Each reaction was run in triplicate.
# [12] = system: prostate cancer cell lines (LNCaP, PC-3, DU-145, PPC-1); experiment: SRB cytotoxicity, prostate cancer cell lines (panel statements); conditions: Homo sapiens, read-out: IC50 against prostate cancer cells
# [13] = system: microtubules in WM-164 melanoma cells; experiment: Microtubule imaging (immunofluorescence), WM-164; assay type: cell-based, human; conditions: 18 h
# PC-3 xenografts = experiment: In vivo efficacy, PC-3 prostate tumor xenograft in nude mice; conditions: 50 mg/kg i.p.
# PC-3 cells [14] = experiment: Apoptosis detection by ELISA (cytoplasmic DNA-histone complexes), PC-3; assay type: cell-based, human; conditions: PC-3 and A375 cells, 24 h
# From the text: The levels of DNA-histone complexes were used to represent cell apoptosis.
# Quantification of the enrichment of mono- and oligonucleosomes in the cytoplasm was used to determine the ability of the compounds to induce apoptosis (cell death detection ELISA PLUS, Roche, Germany) following the manufacturer's instructions.
# Bovine brain tubulin = experiment: In vitro tubulin polymerization assay (bovine brain tubulin); assay type: biochemical
# Description: The spectrophotometer was maintained at 37° C. for tubulin polymerization.
# [15] = Rotarod test (in vivo neurotoxicity); set-up: species or system mouse; conditions: ICR mice; 1h 5 or 15 mg/kg, vinblastine 0.5 mg/kg, i.p. daily
# Description: ICR mice received training three times a day for two days to enable them to stay on the rotating rod for >120 seconds at 12 rpm. Mice were then randomized by the length of time that they could stay on the rotating rod and divided into 7-8 mice per group. […] The rotarod test was performed twice a week. […] The rod speed was increased from […] to 40 rpm over a period of 5 min. Performance was measured as the length of time that a mouse could stay on the rotating rod.
# A375 melanoma xenografts = experiment: In vivo efficacy, A375 melanoma xenograft in nude mice (SMART compounds); set-up: species or system mouse; conditions: Melanoma (A375) xenograft; 15 mg/kg i.p.
# [16] = Aqueous solubility, Multiscreen Solubility Filter Plate, PBS pH 7.4; assay type: physicochemical; conditions: HCl salt, vs 1h
compound,measurement,setting,value
"O=C(c1ccc2[nH]ccc2c1)c1csc(-c2cc3ccccc3[nH]2)n1 [compound 21, (2-(1H-indol-2-yl)thiazol-4-yl)(1H-indol-5-yl)methanone]",times higher Vss than 1h and 2k,[1]; ICR mice,2-3 times
same,IC50,[2],0.076 to 0.116 µM
"O=C(c1ccc(F)cc1)c1c[nH]c(-c2ccc(Cl)cc2)n1 [12fb, (2-(4-chlorophenyl)-1H-imidazol-4-yl)(4-fluorophenyl)methanone]",lowest tested concentration with effective inhibition of colony formation,B16-F1 melanoma cells [3],100 nM
"COc1cc(C(=O)c2c[nH]c(-c3ccc(Cl)cc3)n2)cc(OC)c1OC [12fa, (2-(4-chlorophenyl)-1H-imidazol-4-yl)(3,4,5-trimethoxyphenyl)methanone]",Half-life in HLM (Phase I),[4],44 min
same,IC50,"NCI/ADR-RES cells; Table 12, read-out: IC50 ± SEM NCl/ADR-RES",0.019 µM
COc1cc(-c2nccc3ccc(-c4ccc5[nH]ccc5c4)cc23)cc(OC)c1OC [6a],Half life in Rat liver microsome,[5],12 min
same,Half life in Human liver microsome,[4],32 min
same,Half life in Dog liver microsome,[6],13 min
same,Half life in Mouse liver microsome,[7],3.43 min
same,Half life in Monkey liver microsome,[8],16 min
O=C(c1ccc(F)cc1)c1c[nH]c(-c2ccc(O)cc2)n1 [12kb],IC50,DU 145 cells,> 10 µM
same,IC50,PPC-1 cells,> 10 µM
same,IC50,"A375 melanoma cells; Table 12, 48 h",10 µM
same,IC50,PC-3 cells [9],> 10 µM
same,IC50,"LNCaP cells; Table 12, 96 h",> 10 µM
same,IC50,WM-164 melanoma cells,> 10 µM
same,IC50,B16-F1 melanoma cells [10],> 10 µM
O=C(c1cc(O)c(O)c(O)c1)c1c[nH]c(-c2ccc(O)c(O)c2)n1 [13ha],IC50,"A375 melanoma cells; Table 12, 48 h",> 10 µM
same,IC50,WM-164 melanoma cells,> 10 µM
same,IC50,B16-F1 melanoma cells [10],> 10 µM
"COc1cc(C(=O)c2csc(Nc3ccc4[nH]ccc4c3)n2)cc(OC)c1OC [compound 55, (2-(1H-indol-5-yl amino)thiazol-4-yl)(3,4,5-trimethoxyphenyl)methanone]",permeability of endothelial cell monolayer,HUVEC monolayers,increased permeability
same,Half-life in HLM (Phase I),[4],30 min
same,Half-life in HLM (Phase I + II),[4],43 min
same,Tumor size Start,PC-3/TxR xenografts; PO 10 mpk,143 ± 44 mm^3
same,Tumor size Start,PC-3/TxR xenografts; PO 30 mpk,134 ± 34 mm^3
same,TGI,"PC-3/TxR xenografts; p.o. 30 mg/kg b.i.d., five times a week, day 19 to 26",> 100%
same,competition with colchicine-tubulin binding,[11],competed effectively with colchicine
"COc1cc(C(=O)c2cccc(-c3ccccc3)n2)cc(OC)c1OC [1c, (6-Phenylpyridin-2-yl)(3,4,5-trimethoxyphenyl)methanone]",IC50,[12],0.012 to 0.035 µM
"COc1cc(C(=O)c2c[nH]c(-c3ccc(C)cc3)n2)cc(OC)c1OC [12da, (2-(p-tolyl)-1H-imidazol-4-yl)(3,4,5-trimethoxyphenyl)methanone]",effect on microtubules,[13],microtubule fragmentation
same,lowest tested concentration with effective inhibition of colony formation,B16-F1 melanoma cells [3],20 nM
"c1cc2ccc(-c3ccc4[nH]ccc4c3)cc2c(-c2ccc3[nH]ccc3c2)n1 [6b, 1,7-Bis-(1H-indol-5-yl)-isoquinoline]",Half life in Rat liver microsome,[5],9 min
same,Half life in Human liver microsome,[4],40 min
same,Half life in Dog liver microsome,[6],30 min
same,Half life in Mouse liver microsome,[7],10 min
same,Half life in Monkey liver microsome,[8],13 min
COc1cc(C(=O)c2csc(-c3ccc(CC(N)=O)cc3)n2)cc(OC)c1OC [2q],IC50,A375 melanoma cells; Table 6,> 20 µM
same,IC50,LNCaP cells; Table 6,> 10 µM
"COc1ccc(-c2nc(C(=O)c3ccc(F)cc3)c[nH]2)cc1 [12cb, (4-fluorophenyl)(2-(4-methoxyphenyl)-1H-imidazol-4-yl)methanone]",effect on microtubules,[13],microtubule fragmentation
same,lowest tested concentration with effective inhibition of colony formation,B16-F1 melanoma cells [3],20 nM
"Fc1ccc(-c2nccc3ccc(-c4ccc5[nH]ccc5c4)cc23)cc1 [6c, 1-(4-Fluoro-phenyl)-7-(1H-indol-5-yl)-isoquinoline]",Half life in Rat liver microsome,[5],14 min
same,Half life in Human liver microsome,[4],47 min
same,Half life in Dog liver microsome,[6],29 min
same,Half life in Mouse liver microsome,[7],13 min
same,Half life in Monkey liver microsome,[8],9 min
"COc1cc(C(=O)c2csc(-c3ccc(O)cc3)n2)cc(OC)c1OC [2l, (2-(4-Hydroxyphenyl)thiazol-4-yl)(3,4,5-trimethoxyphenyl)methanone]",% T/C,PC-3 xenografts,34%
same,concentration inducing apoptosis,PC-3 cells [14],greater than or equal to 200 nM
same,inhibition of tubulin polymerization,Bovine brain tubulin; 10 μM (Example 22),55%
"CC[C@]1(O)C[C@@H]2CN(CCc3c([nH]c4ccccc34)[C@@](C(=O)OC)(c3cc4c(cc3OC)N(C)[C@H]3[C@@](O)(C(=O)OC)[C@H](OC(C)=O)[C@]5(CC)C=CCN6CC[C@]43[C@@H]65)C2)C1 [Vinblastine, vinblastine, reference compound]",competition with colchicine-tubulin binding,[11],did not inhibit the colchicine-tubulin binding
same,time on the rotating rod vs vehicle group,[15],gradually reduced the time
"COc1cc(C(=O)c2csc(-c3ccccc3)n2)cc(OC)c1OC [1h, (2-Phenyl-thiazol-4-yl)-(3,4,5-trimethoxy-phenyl)-methanone]",Half-life in HLM (Phase I + II),[4],17 min
same,Half life in Human liver microsome,[4],17 min
same,competition with colchicine-tubulin binding,[11],specifically competed with colchicine binding to tubulin
same,inhibition of tubulin polymerization,Bovine brain tubulin; 10 μM (Example 22),90%
same,inhibition of tubulin polymerization,"Bovine brain tubulin; 10 μM, after 20 min, vs vehicle",47%
same,time on the rotating rod vs vehicle group,[15],no significant difference
COc1cc(C(=O)c2csc(-c3ccc(F)cc3)n2)cc(OC)c1OC [SMART-F],T-C,A375 melanoma xenografts,11 days
same,AUC,[1]; mice,2100 ng·h/mL
"COc1cc(C(=O)c2csc(-c3ccc(CN)cc3)n2)cc(OC)c1OC.Cl [2r, (2-(4-(Aminomethyl)phenyl)thiazol-4-yl)(3,4,5-trimethoxyphenyl)methanone hydrochloride]",increase of solubility,[16],over 35 fold
same,IC50,[2],0.013 to 0.08 µM
same,IC50,"NCI/ADR-RES cells; Table 5A, P-gp over-expressed, read-out: IC50 NCI/ADR-RES",0.011 ± 0.002 µM
